The values below come from PMC10104254, “Development of a novel angiotensin converting enzyme 2 stimulator with broad implications in SARS-CoV2 and type 1 diabetes” (Research Square, 2023).

Peptide text beside a SMILES is read from it.

Series [1] has as its target T1, rhACE2 (Homo sapiens, UniProt Q9BYF1).
T1 construct: purchased R&D systems
Details: method as in PMID 26931059. As to conditions: 20 amino acid peptide from Bothrops asper myotoxin; cited from earlier work.

In series [2] the target is T1, rhACE2. Kind of series: ACE2-dependent breakdown of angiotensin II and formation of angiotensin 1-7 by LCMS. It is filed as biochemical. Conditions: 2A 1.7 μM, n=4. The method, then:
The effect of 2A on ACE2-mediated cleavage of angiotensin II was assessed using LCMS. rhACE2 (0.1 ng/μL) was incubated with 2A (1.7 μM) for 1 h at 37 °C. Angiotensin II (0.02 μg/μL) was then added. Aliquots of equal volumes were collected at T = 0, 3, 6 and 24-h. Aliquots were immediately acidified with trifluoroacetic acid (0.1% final). Samples were snap frozen in dry ice and lyophilized for analysis by LCMS.
Prior to loading, samples were reconstituted in 100 μL loading buffer. Samples were analysed using a quadrupole TOF mass spectrometer (MicroTOFq, Bruker Daltonics, Bremen, Germany) coupled online with a 1200 series nano HPLC (Agilent Technologies). Samples were loaded onto a zorbax 300SB reversed-phase trap column equilibrated with 95% buffer A (0.1% formic acid). The flow rate was set to 10 μL/min. The components were eluted over a 10 min gradient to 70% buffer B (80% acetonitrile, 0.1% formic acid) and peptides were separated on zorbax 300SB-C18 nano column (75 μm × 15 cm, 3.5 μm). The eluant was nebulised and ionised using the Bruker nano-ESI source with a capillary voltage of 4500 V, dry gas at 180° C, flow rate set at […] and nebuliser gas pressure at 300 mbar. The mass spectrometry acquisition was in selected ion monitoring mode after selected ion extraction of the mass spectrometry spectra. […]

A short description of series [3]: Stability of 2A in cell culture (HEK293), LCMS. It is filed as in vitro ADME. As to conditions: peptide 9 μM, 60 min; for remaining at 1 h, 9 μM: human, HEK293 cells in culture, HEK293 cells 20,000 cells/well, Opti-MEM reduced serum media, mean ± SEM, read-out: amount remaining in the medium of HEK293 cells at T60 min compared with T0 min. The protocol: HEK293 (passage 24) were seeded into tissue-culture-grade 96-well plates at a density of 20,000 cells/well. After 24 h, cells were washed with PBS and replaced with Opti-MEM reduced serum media containing amidated or non-amidated 2A (9 μM). Aliquots of equal volume were taken at T = 0 and 60 min. Amidated 2A was added to control wells having media (no cells) only. Samples were immediately acidified in 0.1% TFA, snap frozen in dry ice and stored in −80 °C until analyzed by LCMS.
Samples were analyzed by LC-MS/MS on a Shimadzu Nexera uHPLC (Japan) coupled to a Triple Tof 5600 mass spectrometer (ABSCIEX, Canada) equipped with a duo electrospray ion source. One μl of each extract was injected onto a 2.1 mm × 100 mm Zorbax C18 1.8um column (Agilent) at 200 μL/min. Linear gradients of 1–50% solvent B over 7 min at 200 μL/min flow rate, followed by a steeper gradient from 50% to 98% solvent B in 1 min were used for peptide elution. Solvent B was held at 98% for 3 min for washing the column and returned to 1% solvent B for equilibration prior to the next sample injection. Solvent A consisted of 0.1% formic acid (aq) and solvent B contained 90/10 acetonitrile/ 0.1% formic acid (aq). The ionspray voltage was set to 5500 V, declustering potential (DP) 100 V, curtain gas flow 25, nebuliser gas 1 (GS1) 50, GS2 to 60, interface heater at 150 °C and the turbo heater to 500 °C. The mass spectrometer acquired 500ms full scan high resolution, at 30,000 resolving power, TOF-MS data over the mass range […].
Both amidated and non amidated 2A were quantified using the [M+2H]^2+ doubly charged molecular ion from m/z 575.32 to 575.37.
The data was acquired using Analyst TF 1.6 and quantification was carried out using MultiQuant 2.1.1 software (ABSCIEX, Canada).

Series [4] in a line: Streptozotocin (STZ) model of type 1 diabetes in mice. It is filed as in vivo, C57Bl/6J mice. The method, then: Streptozotocin (STZ; 150 mg/kg; i.p) was used to induce type 1 diabetes in male C57BI/6J mice. Blood glucose was measured 1 week post STZ injection to confirm the presence of diabetes (BG levels > 15 mmol/L at 1 week post STZ injection was included in this study). After establishment of diabetes (T0), mice were randomly allocated to receive 2A (1 mg/kg/ day; 10% DMSO in saline) or vehicle (10% DMSO in saline) via subcutaneous minipumps for a period 3 months. Non fasting blood glucose levels were measured every 2 weeks until study end (T3), and body weight was measured daily, until study end. 24-h urine samples were collected at 1 month intervals since commencement of 2A or its vehicle. (Detailed Methods section is provided at the end of the Discussion).
Streptozotocin (STZ) is a widely used model of type I diabetes which closely mimic the human disease[31],[32]. Male C57Bl/6J mice were purchased from Animal Resources Centre (Western Australia, Australia) and these mice were acclimatized for at least one week prior to inducing diabetes. […] Mouse body weight was measured daily. Blood glucose levels were measured via tail bleed 1-week post-STZ injection to confirm the establishment of diabetes (CareSens N; iSENS, Seoul, Korea). […] Blood glucose levels were measured every 2 weeks until the end of the treatment period. […]

Series [5] is described as follows: Pharmacokinetics and tissue distribution of 2A in normal mice. As to conditions: LC-MS/MS.
Experimental: Wild-type C57BL/6J mice (male, 10–12 weeks old) were purchased from the Animal Resources Centre (Western Australia, Australia). All animals were housed within the University of Queensland Biological Resources animal facility in a pathogen-free environment with a 12 h dark/12 h light cycle and free access to food and water.
The pharmacokinetic (PK) profile and biodistribution of 2A peptide was assessed in mice (n=5; per route at a dose of 1 mg/kg) after intravenous (i.v; tail vein), subcutaneous (s.c; between the shoulders) and intranasal (i.n; 10μl in each nostril with total volume of 20μl) administration. Blood samples were collected at 10, 20, 30, 45, 60 mins, 2 h and 4 h after drug administration via the tail vein using a microsampling technique[27]. At the terminal time point (24 h post administration), animals were anaesthetised with zolazepam (50 mg/kg) and xylazine (12 mg/kg) via i.p. injection. Blood samples were then collected via cardiac puncture as well as tail bleed to validate the sampling protocol. Plasma was isolated from blood samples by centrifugation (2000 g for 10 min at 4 °C), and stored at −80 °C. Following blood collection at the termination time point, mice were immediately perfused transcardially with saline to remove blood from tissues. Harvested tissue samples were then weighed and homogenized in an equal weight volume of milliQ water. On the day of analysis, aliquots (5 μL) of thawed plasma samples and 100μL of tissue homogenates were mixed with internal standard (10 μL) and processed for peptide quantification using a semi-validated LC–MS/MS method as described previously[28].
Quantification of 2A peptide was performed using AcF-[OPdChaWR] peptide as an internal standard as described previously[28]. […] Concentrations of 2A peptide in samples was measured against known concentration of internal standard and peak area ratio of analyte to internal standard. […]
The subject of the next series is SARS-CoV-2. It is filed as cell-based. As to conditions: 350 μM, pre-treated apically and basolaterally 1 h, then added every 12 h for 48 h; MOI 3; n=3 donors; versus PBS.

T1 sequence (Q9BYF1 18-805): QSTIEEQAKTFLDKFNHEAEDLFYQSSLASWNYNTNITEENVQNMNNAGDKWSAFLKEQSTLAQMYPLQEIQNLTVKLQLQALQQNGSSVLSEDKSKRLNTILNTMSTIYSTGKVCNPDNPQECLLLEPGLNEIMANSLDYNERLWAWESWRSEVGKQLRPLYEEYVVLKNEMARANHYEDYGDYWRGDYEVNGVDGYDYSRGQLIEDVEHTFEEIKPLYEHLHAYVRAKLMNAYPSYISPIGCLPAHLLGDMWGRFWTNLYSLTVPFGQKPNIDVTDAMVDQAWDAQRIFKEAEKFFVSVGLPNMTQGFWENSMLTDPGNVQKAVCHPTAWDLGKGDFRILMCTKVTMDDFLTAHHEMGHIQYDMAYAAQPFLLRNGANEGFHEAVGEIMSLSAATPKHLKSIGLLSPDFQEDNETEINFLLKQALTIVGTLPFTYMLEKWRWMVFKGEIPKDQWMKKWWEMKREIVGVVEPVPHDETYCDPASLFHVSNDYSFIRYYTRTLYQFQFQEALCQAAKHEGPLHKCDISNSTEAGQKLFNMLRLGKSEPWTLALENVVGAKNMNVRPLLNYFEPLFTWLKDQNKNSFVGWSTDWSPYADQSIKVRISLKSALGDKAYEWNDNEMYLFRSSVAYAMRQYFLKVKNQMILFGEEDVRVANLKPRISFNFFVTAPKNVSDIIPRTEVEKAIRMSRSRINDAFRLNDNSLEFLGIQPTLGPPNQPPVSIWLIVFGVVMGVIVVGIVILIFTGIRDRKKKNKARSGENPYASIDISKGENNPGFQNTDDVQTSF

For the molecule “20 amino acid peptide: synthetic peptide corresponding to the first 20 amino acids of Bothrops asper myotoxin II”, in the series with rhACE2 [1], the “effect on recombinant human ACE2 enzyme activity” value is given as “stimulates recombinant human ACE2 enzyme activity”.

`CC[C@H](C)[C@H](NC(=O)[C@H](CCSC)NC(=O)[C@H](CCCCN)NC(=O)CNC(=O)[C@H](CC(C)C)NC(=O)[C@H](CCC(=O)O)NC(=O)[C@H](Cc1ccccc1)NC(=O)[C@H](CC(C)C)NC(=O)[C@@H](N)CO)C(=O)N[C@@H](CC(C)C)C(N)=O` [2A] (H-SLFELGKMIL-NH2): on rhACE2 [2], the “increase of Ang 1-7 levels in the presence of ACE2 + 2A compared to ACE2 alone” value was 165 ± 12%. Moreover, at rhACE2 [2] (over a 24-h period, ACE2 alone 58 ± 4%), the “reduction of Ang II levels in the presence of ACE2 + 2A” value amounted to 83 ± 5%. Further, the share remaining at 1 h, 9 μM in series [3] is 54 ± 4%. For the same molecule, the “amount remaining in the cell culture medium in the absence of cells at T60 min” value in series [3] (media only (no cells), Opti-MEM, possible adherence to plastic) stood at 63 ± 14%. Further, the “effects on organ weight” value in series [4] (2A 1 mg/kg/day, 3 months) is reported as “minimal effects”. Further, the “untoward effects in animal models” value in series [4] (pre-clinical animal models of this paper) is given as “did not observe any untoward effects”. The “detection in plasma 24 h post administration” value in series [5] (1 mg/kg i.v., s.c. or i.n., C57BL/6J mice, n=5 per route) is on record as “a small amount of peptide was still detected”. The “clearance from the circulation” value in series [5] (1 mg/kg i.v., s.c. or i.n., C57BL/6J mice, plasma, n=5 per route) is given as “rapidly cleared from the circulation over the first 4h”. Moreover, the “tissue distribution 24-h post administration (heart, lung, spleen, kidney, brain and spinal cord)” value in series [5] (1 mg/kg, irrespective of the route (i.v., s.c., i.n.), tissue homogenates) is reported as “detectable at low concentrations”.

As to `N=C(N)c1ccc(/N=N/Nc2ccc(C(=N)N)cc2)cc1` [DIZE, diminazene], the “viral titres produced by epithelial cells at 48 hours post-infection” value with SARS-CoV-2 was “not significantly different”.

As to `CC[C@H](C)[C@H](NC(=O)[C@H](CCSC)NC(=O)[C@H](CCCCN)NC(=O)CNC(=O)[C@H](CC(C)C)NC(=O)[C@H](CCC(=O)O)NC(=O)[C@H](Cc1ccccc1)NC(=O)[C@H](CC(C)C)NC(=O)[C@@H](N)CO)C(=O)N[C@@H](CC(C)C)C(=O)O` [non-amidated 2A] (H-SLFELGKMIL-OH; N-terminus assumed), in series [3], the share remaining at 1 h, 9 μM amounted to 29 ± 3%.
